For this test, the target named is T1, acyl-CoA:cholesterol O-acyltransferase (ACAT) (Oryctolagus cuniculus, UniProt G1SFD9).
T1 construct: The intestinal mucosa of a white rabbit was homogenized and microsomal fraction was obtained by stepwise centrifugation; from tissue; host or cells: intestinal mucosa of white rabbit, microsomal fraction
T1 sequence (G1SFD9 1-524): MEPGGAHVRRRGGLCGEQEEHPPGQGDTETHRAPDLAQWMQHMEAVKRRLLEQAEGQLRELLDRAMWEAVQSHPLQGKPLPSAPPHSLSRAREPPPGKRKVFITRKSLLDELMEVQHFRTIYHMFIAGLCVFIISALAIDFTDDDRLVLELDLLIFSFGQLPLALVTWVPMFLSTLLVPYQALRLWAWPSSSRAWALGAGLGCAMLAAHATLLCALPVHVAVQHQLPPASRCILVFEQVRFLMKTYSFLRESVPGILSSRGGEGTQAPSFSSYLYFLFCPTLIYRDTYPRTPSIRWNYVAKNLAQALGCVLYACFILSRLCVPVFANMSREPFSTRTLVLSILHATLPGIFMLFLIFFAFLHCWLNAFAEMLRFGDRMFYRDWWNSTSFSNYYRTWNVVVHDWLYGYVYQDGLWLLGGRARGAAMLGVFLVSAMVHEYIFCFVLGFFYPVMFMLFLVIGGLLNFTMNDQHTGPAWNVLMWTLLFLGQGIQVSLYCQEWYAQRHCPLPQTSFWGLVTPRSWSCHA
Kind of test: Inhibitory activity on acyl-CoA:cholesterol O-acyltransferase (ACAT), intestinal mucosa microsomal fraction, [1-14C]oleyl-CoA incorporation into cholesterol esters. The class given is biochemical, white rabbit. The note with it: read-out: Inhibition rate %. As for the experimental part:
Inhibitory activity on acyl-CoA:cholesterol Oacyltransferase (ACAT)
The enzyme used in the test was prepared according to the method of Heider et al. [J. Lipid, Res. 24, 1127 (1983)]. The intestinal mucosa of a white rabbit was homogenized and microsomal fraction was obtained by stepwise centrifugation. The microsomal fraction was suspended in 0,154M phosphate buffer (pH 0 7.4) and stored at -80° C. until use.
ACAT activity was determined by a modification of the method of Helgerud et al. [J. Lipid Res. 22, 271 (1981)] by measuring radioactivity incorporated into cholesterol esters from [1-14C]oleyl-CoA, as an indication. As to the ACAT-inhibiting activity of each compound to be tested, the inhibition rate was calculated by the following equation.

What is called inhibition is the percentage by which the read-out fell short of the control.

Take `CCc1cccc(CC)c1NC(=O)Nc1sc2ccc(C(C)C)cc2c1-c1ccccc1Cl` [Compound 76, N-[3-(2-Chlorophenyl)-5-isopropyl-1-benzothiophen-2-yl]-N'-(2,6-diethylphenyl)urea]: the inhibition at 0.01 µM was 71%.

For the compound `Cc1ccc2oc(NC(=O)Nc3c(C(C)C)cccc3C(C)C)c(-c3ccccc3Cl)c2c1` [Compound 22, N-[3-(2-Chlorophenyl)-5-methylbenzofuran-2-yl]-N'-(2,6-diisopropylphenyl)urea], the inhibition at 0.01 µM worked out at 69.3%. Take `Cc1ccc(S(=O)(=O)n2c(NC(=O)Nc3c(C)cccc3C(C)C)c(-c3ccccc3Cl)c3cc(C)cc(C)c32)cc1` [Compound 121, N-[3-(2-chlorophenyl)-5,7-dimethyl-1-(p-toluenesulfonyl)indole-2-yl]-N'-(2-isopropyl-6-methylphenyl)urea]: the inhibition at 1 µM was determined as 85.8%.

`Cc1cc(C)c2oc(NC(=O)Nc3c(Cl)cccc3Cl)c(-c3ccccc3Cl)c2c1` [Compound 49, N-[3-(2-Chlorophenyl)-5,7-dimethylbenzofuran-2-yl]-N'-(2,6-dichlorophenyl)urea]: the inhibition at 0.01 µM was determined as 51.9% and the inhibition at 1 µM was found to be 99.1%. For `Cc1ccccc1NC(=O)Nc1oc2ccc(Cl)cc2c1-c1ccccc1Cl` [Compound 5, N-[5-Chloro-3-(2-chlorophenyl)benzofuran-2-yl]-N'-(2-methylphenyl)urea], in that order: 15.4% and 98.5%.

Turning to `CC(C)c1cccc(C(C)C)c1NC(=O)Nc1oc2ccc(F)cc2c1-c1ccccc1Cl` [Compound 2, N-[3-(2-Chlorophenyl)-5-fluorobenzofuran-2-yl]-N'-(2,6-diisopropylphenyl)urea], the inhibition at 0.01 µM came out at 58.3%. The same measure, in the same setting: for `Cc1cc2sc(NC(=O)Nc3c(C)cccc3N(C)C)c(-c3ccccc3Cl)c2cc1C` [Compound 83, N-[3-(2-Chlorophenyl)-5,6-dimethyl-1-benzothiophen-2-yl]-N'-(2-dimethylamino-6-methylphenyl)urea] the value was 81.3%; for `Cc1cccc(C(C)C)c1NC(=O)Nc1sc2cc3c(cc2c1-c1ccccc1Cl)CCC3` [Compound 90, N-[3-(2-Chlorophenyl)-6,7-dihydro-5H-cyclopenta[f][1]benzothiophen-2-yl]-N'-(2-isopropyl-6-methylphenyl)urea], 75.4%. With `CCc1cccc(CC)c1NC(=O)Nc1oc2ccc(F)cc2c1-c1ccccc1Cl` [Compound 1], the inhibition at 0.01 µM worked out at 49.8%. On the same count and under the same terms, for `CC(C)c1cccc(C(C)C)c1NC(=O)Nc1oc2cc3c(cc2c1-c1ccccc1Cl)CCC3` [Compound 53, N-[3-(2-Chlorophenyl)-6,7-dihydro-5H-cyclopenta[f]benzofuran-2-yl]-N'-(2,6-diisopropylphenyl)urea] the value was 43.7%.

As to `Cc1ccc(S(=O)(=O)n2c(NC(=O)Nc3ccc(F)cc3F)c(-c3ccccc3)c3ccccc32)cc1` [Compound 120, N-(2,4-Difluorophenyl)-N'-[3-phenyl-1-(p-toluenesulfonyl)-3-phenylindole-2-yl]urea], the inhibition at 1 µM was found to be 60.4%. Turning to `Cc1ccccc1-c1c(NC(=O)Nc2c(C)cccc2C(C)C)sc2cc3c(cc12)CCC3` [Compound 111, N-(2-Isopropyl-6-methylphenyl)-N'-[3-(2methylphenyl)-6,7-dihydro-5H-cyclopenta[f][1]benzothiophen-2-yl]urea], the inhibition at 0.01 µM came to 69.2%. The same measure, in the same setting: to `CCc1cccc(CC)c1NC(=O)Nc1sc2cc(OC)c(OC)cc2c1-c1ccccc1Cl` [Compound 102, N-[3-(2-Chlorophenyl)-5,6-dimethoxy-1-benzothiophen-2-yl]-N'-(2,6-diethylphenyl)urea] belongs 43.3%. With `Cc1cc2oc(NC(=O)Nc3c(C(C)C)cccc3C(C)C)c(-c3ccccc3Cl)c2cc1C` [Compound 38, N-[3-(2-Chlorophenyl)-5,6-dimethylbenzofuran-2-yl]-N'-(2,6-diisopropylphenyl)urea], the inhibition at 0.01 µM amounted to 77.2% and the inhibition at 1 µM stood at 99.5%. Turning to `Cc1cccc(C(C)C)c1NC(=O)Nc1oc2ccc(Cl)cc2c1-c1ccccc1Cl` [Compound 15, N-[5-Chloro-3-(2-chlorophenyl)benzofuran-2-yl]-N'-(2-isopropyl-6-methylphenyl)urea], the inhibition at 0.01 µM is 76.8% and the inhibition at 1 µM came out at 99.4%. For `CC(C)c1ccc2sc(NC(=O)Nc3c(C(C)C)cccc3C(C)C)c(-c3ccccc3Cl)c2c1` [Compound 77, N-[3-(2-chlorophenyl)-5-isopropyl-1-benzothiophen-2-yl]-N'-(2,6-diisopropylphenyl)urea], the inhibition at 0.01 µM was found to be 51.7%. Take `Cc1cc(C)c2c(c1)c(-c1ccccc1Cl)c(NC(=O)Nc1ccc(F)cc1F)n2C` [Compound 124, N-[3-(2-Chlorophenyl)-5,7-dimethyl-1-methylindole-2-yl]-N'-(2,4-difluorophenyl)urea]: the inhibition at 1 µM was 81.7%. `CCc1cccc(CC)c1NC(=O)Nc1sc2cc3c(cc2c1-c1ccccc1Cl)CCC3` [Compound 88, N-[3-(2-Chlorophenyl)-6,7-dihydro-5H-cyclopenta[f][1]benzothiophen-2-yl]-N'-(2,6-diethylphenyl)urea]: the inhibition at 0.01 µM worked out at 85.8%. For `Cc1cccc(N(C)C)c1NC(=O)Nc1oc2ccc(Cl)cc2c1-c1ccccc1Cl` [Compound 19, N-[5-chloro-3-(2-chlorophenyl)benzofuran-2-yl]-N'-(2-dimethylamino-6-methylphenyl)urea], the inhibition at 0.01 µM amounted to 71.3%. With `Cc1cc2oc(NC(=O)Nc3c(C)cccc3C)c(-c3ccccc3Cl)c2cc1C` [Compound 36, N-[3-(2-Chlorophenyl)-5,6-dimethylbenzofuran-2-yl]-N'-(2,6-dimethylphenyl)urea], the inhibition at 0.01 µM was found to be 37.6% and the inhibition at 1 µM stood at 98.9%. For `CCc1cccc(CC)c1NC(=O)Nc1oc2ccc(Cl)cc2c1-c1ccccc1C` [Compound 60, N-[5-Chloro-3-(2-methylphenyl)benzofuran-2-yl]-N'-(2,6-diethylphenyl)urea], the inhibition at 0.01 µM was determined as 82.6%.

Consider `CC(C)c1cccc(C(C)C)c1NC(=O)Nc1oc2ccc(Cl)cc2c1-c1ccccc1Cl` [Compound 13, N-[5-Chloro-3-(2-chlorophenyl)benzofuran-2-yl]-N'-(2,6-diisopropylphenyl)urea], for which the inhibition at 0.01 µM turned out to be 84.9% and the inhibition at 1 µM was found to be 99.4%. Regarding `O=C(Nc1sc2cc3c(cc2c1-c1ccccc1Cl)CCC3)Nc1c(F)cc(F)cc1F` [Compound 94, N-[3-(2-Chlorophenyl)-6,7-dihydro-5H-cyclopenta[f][1]benzothiophen-2-yl]-N'-(2,4,6-trifluorophenyl)urea], the inhibition at 0.01 µM amounted to 76.7%.

As to `CC(C)c1cccc(C(C)C)c1NC(=O)Nc1sc2cc3c(cc2c1-c1ccccc1Cl)CCC3` [Compound 89, N-[3-(2-Chlorophenyl)-6,7-dihydro-5H-cyclopenta[f][1]benzothiophen-2-yl]-N'-(2,6-diisopropylphenyl)urea], the inhibition at 0.01 µM stood at 44.4%. For `CCc1cccc(CC)c1NC(=O)Nc1sc2cc3c(cc2c1-c1ccccc1C(F)(F)F)CCC3` [Compound 113, N-(2,6-Diethylphenyl)-N'-[3-(2-trifluoromethylphenyl)-6,7-dihydro-5H-cyclopenta[f][1]-benzothiophen-2-yl]urea], the inhibition at 0.01 µM stood at 43.5%. With `COc1ccccc1NC(=O)Nc1oc2ccc(Cl)cc2c1-c1ccccc1Cl` [Compound 8, N-[5-Chloro-3-(2-chlorophenyl)benzofuran-2-yl]-N'-(2-methoxyphenyl)urea], the inhibition at 0.01 µM was determined as 24.9% and the inhibition at 1 µM came to 97.4%. For `CCc1cccc(CC)c1NC(=O)Nc1sc2ccc(C)cc2c1-c1ccccc1Cl` [Compound 72, N-[3-(2-Chlorophenyl)-5-methyl-1-benzothiophen-2-yl]-N'-(2,6-diethylphenyl)urea], the inhibition at 0.01 µM stood at 60.6%. In the case of `CCc1ccc2oc(NC(=O)Nc3c(C(C)C)cccc3C(C)C)c(-c3ccccc3Cl)c2c1` [Compound 25, N-[3-(2-Chlorophenyl)-5-ethylbenzofuran-2-yl]-N'-(2,6-diisopropylphenyl)urea], the inhibition at 0.01 µM stood at 73.3%. On the same count and under the same terms, for `O=C(Nc1ccc(F)cc1F)Nc1oc2cc3c(cc2c1-c1ccccc1Cl)CCC3` [Compound 55, N-[3-(2-Chlorophenyl)-6,7-dihydro-5H-cyclopenta[f]benzofuran-2-yl]-N'-(2,4-difluorophenyl)urea] the value was 32.1%. With `CCc1cccc(CC)c1NC(=O)Nc1sc2ccc(Cl)cc2c1-c1ccccc1Cl` [Compound 65, N-[5-Chloro-3-(2-chlorophenyl)-1-benzothiophen-2-yl]-N'-(2,6-diethylphenyl)urea], the inhibition at 0.01 µM was determined as 56.5% and the inhibition at 1 µM worked out at 99.1%.
